# From patent publication US4520022A, “Substituted vinyl cephalosporins” (priority 1983, dated 1985)
# Like-named read-outs stand apart in the source and are kept apart here.
# What was measured:
# S. aureus BX-1633 = experiment: Protective dose PD50, mice infected with lethal inoculum, oral treatment, S. aureus BX-1633; format: in vivo; conditions: Staphylococcus aureus, BX1633, 120 h
# H. influenza A9729 = experiment: Protective dose PD50, mice infected with lethal inoculum, oral treatment, H. influenza A9729; format: in vivo; conditions: Mus musculus, 120 h
# Text: The structure activity correlations drawn from the foregoing in vitro studies are born out by the results of in vivo studies in mice. Table 4 is a tabulation of the protective doses for mice infected with a lethal inoculum of a bacteria. Two different bacteria were employed in the studies, one a Gram+ organism and the other a Gram- organism. The protective dose (PD50) is that dose which when administered to a group of infected mice results in 50% survival after five days. Normally untreated infected mice die within three days following injection of the lethal inoculum.
# Protective Dose PD50 for Mice Infected with Lethal Inoculum
# P. anaerobius A21905 = experiment: In vitro activity against anaerobes (MIC), P. anaerobius; format: cell-based; conditions: Peptostreptococcus anaerobius, A21905
# N. gonorrheae = experiment: In vitro activity against Neisseria (MIC), N. gonorrheae; format: cell-based
# S. pyogenes = experiment: In vitro activity against Streptococci (MIC), S. pyogenes; format: cell-based
# S. pyogenes A20201 = experiment: Protective dose PD50, mice infected with lethal inoculum, oral treatment, S. pyogenes A20201; format: in vivo; conditions: Streptococcus pyogenes, 120 h
# S. pneumoniae = experiment: In vitro activity against Streptococci (MIC), S. pneumoniae; format: cell-based; conditions: Streptococcus pneumoniae
# B. fragilis = experiment: In vitro activity against anaerobes (MIC), B. fragilis; format: cell-based; conditions: Bacteroides fragilis
# N. meningitidis = experiment: In vitro activity against Neisseria (MIC), N. meningitidis; format: cell-based
# P. acnes A21933 = experiment: In vitro activity against anaerobes (MIC), P. acnes; format: cell-based; conditions: Cutibacterium acnes, A21933
# C. difficile A21675 = experiment: In vitro activity against anaerobes (MIC), C. difficile; format: cell-based; conditions: Clostridioides difficile, A21675
# H. influenzae = experiment: In vitro activity against Haemophilis (MIC), H. influenzae; format: cell-based; conditions: Haemophilus influenzae, Compound 9 lot 2
# P. mirabilis A9554 = experiment: Protective dose PD50, mice infected with lethal inoculum, oral treatment, P. mirabilis A9554; format: in vivo
# in vivo = conditions: mouse; for half-life: T1/2
# [1] = system: Gp Ib: S. aureus 193, BX-1633-2 A9606, A15092, Russell, A9602; conditions: Staphylococcus aureus
# [2] = system: Gp Ia: S. aureus Smith A9537, A9497, Terajima, A9534, A9601; conditions: Staphylococcus aureus
# [3] = mouse, in vivo
# bacteria = experiment: Antibacterial activity, general statements; conditions: in words
# [4] = system: Gp Ia, Gp Ib, Gn Ia organisms of Table 2; experiment: Test medium comparison, agar dilution MIC, Mueller-Hinton agar versus nutrient agar
# S. aureus Smith = experiment: Protective dose, mice infected with lethal inoculum, oral treatment, S. aureus Smith; format: in vivo; conditions: Staphylococcus aureus, po, 120 h, oral; separate run of Compound 42 and BMY28100; cephalexin/cefadroxil controls not available; read-out: Protective dose (PD50), S. aureus Smith
# [5] = N. gonorrheae A20143, Compound 9 lot 2
# [6] = N. gonorrheae A20154, Compound 9 lot 2
# [7] = N. gonorrheae A20155, Compound 9 lot 2
# [8] = N. meningitidis A21487; Compound 9 lot 2
# [9] = N. meningitidis A21496; Compound 9 lot 2
# [10] = N. meningitidis A21497; Compound 9 lot 2
smiles,measurement,setting,value
N[C@@H](C(=O)N[C@@H]1C(=O)N2C(C(=O)O)=C(Cl)CS[C@H]12)c1ccccc1 [Cefaclor],ED50,S. aureus BX-1633,2.2 mg/kg
same,ED50,H. influenza A9729,1.6 mg/kg
same,MIC,P. anaerobius A21905,0.4 mg/L
same,MIC,N. gonorrheae,0.8 mg/L
same,MIC,N. gonorrheae; [5],0.8 mg/L
same,MIC,N. gonorrheae; [6],0.8 mg/L
same,MIC,N. gonorrheae; [7],0.8 mg/L
same,MIC,"N. gonorrheae; read-out: MIC, Geometric Mean",0.8 mg/L
same,MIC,"S. pyogenes; S. pyogenes A9604, Compound 9 lot 2",0.2 mg/L
same,MIC,"S. pyogenes; S. pyogenes A15040, Compound 9 lot 2",0.2 mg/L
same,MIC,"S. pyogenes; S. pyogenes A20065, Compound 9 lot 2",0.2 mg/L
same,MIC,"S. pyogenes; S. pyogenes Dick, Compound 9 lot 2",0.2 mg/L
same,MIC,S. pyogenes; Streptococcus pyogenes,0.2 mg/L
same,MIC,"S. pyogenes; Streptococcus pyogenes, read-out: MIC, Geometric Mean",0.2 mg/L
same,ED50,S. pyogenes A20201,0.14 mg/kg
same,MIC,S. pneumoniae,0.8 mg/L
same,MIC,"S. pneumoniae; read-out: MIC, Geometric Mean",1.3 mg/L
same,MIC,"B. fragilis; B. fragilis A20928-1, β-lactamase (-)",3.1 mg/L
same,MIC,"B. fragilis; B. fragilis A20935, β-lactamase (-)",3.1 mg/L
same,MIC,"B. fragilis; B. fragilis A22021, β-lactamase (+)",> 100 mg/L
same,MIC,"B. fragilis; B. fragilis A22053, β-lactamase (+)",100 mg/L
same,MIC,"B. fragilis; B. fragilis A22533, β-lactamase (+)",> 100 mg/L
same,MIC,"B. fragilis; B. fragilis A22693, β-lactamase (+)",> 100 mg/L
same,MIC,"B. fragilis; B. fragilis A22695, β-lactamase (+)",100 mg/L
same,MIC,"B. fragilis; read-out: MIC, Geometric Mean, B. fragilis A20928-1, A21900, A20935, β-lactamase (-)",3.9 mg/L
same,MIC,"B. fragilis; read-out: MIC, Geometric Mean, B. fragilis A22053, A22021, A22693, β-lactamase (+)",> 100 mg/L
same,MIC,"B. fragilis; read-out: MIC, Geometric Mean, B. fragilis A22695, A22533, β-lactamase (+)",> 100 mg/L
same,MIC,N. meningitidis; N. meningitidis A20049,0.8 mg/L
same,MIC,N. meningitidis; [8],0.8 mg/L
same,MIC,N. meningitidis; [9],0.8 mg/L
same,MIC,N. meningitidis; [10],0.8 mg/L
same,MIC,N. meningitidis; Neisseria meningitidis,0.8 mg/L
same,MIC,"N. meningitidis; Neisseria meningitidis, read-out: MIC, Geometric Mean",0.8 mg/L
same,MIC,P. acnes A21933,0.8 mg/L
same,MIC,C. difficile A21675,25 mg/L
same,MIC,H. influenzae; H. influenzae A9729,0.8 mg/L
same,MIC,H. influenzae; H. influenzae A9833,0.8 mg/L
same,MIC,H. influenzae; H. influenzae A20177,0.8 mg/L
same,MIC,H. influenzae; H. influenzae A20193,0.8 mg/L
same,MIC,H. influenzae; H. influenzae A21523,0.8 mg/L
same,MIC,H. influenzae; H. influenzae A22482,0.4 mg/L
same,MIC,H. influenzae; H. influenzae A22483,0.4 mg/L
same,MIC,"H. influenzae; read-out: MIC, Geometric Mean, H. influenzae, seven strains above",0.66 mg/L
same,Protective Dose PD50,P. mirabilis A9554,1.8
CC1=C(C(=O)O)N2C(=O)[C@@H](NC(=O)[C@H](N)c3ccc(O)cc3)[C@H]2SC1 [Cefadroxil],ED50,S. aureus BX-1633,7.2 mg/kg
same,ED50,H. influenza A9729,25 mg/kg
same,MIC,"N. gonorrheae; N. gonorrheae A20142, Compound 9 lot 2",6.3 mg/L
same,MIC,N. gonorrheae; [5],6.3 mg/L
same,MIC,N. gonorrheae; [6],6.3 mg/L
same,MIC,N. gonorrheae; [7],6.3 mg/L
same,MIC,N. gonorrheae; read-out: MIC,6.3 mg/L
same,MIC,"N. gonorrheae; read-out: MIC, Geometric Mean",6.3 mg/L
same,AUC,"in vivo; im, 20 mg/kg, AUC*",14 µg·h/mL
same,Cmax,"in vivo; im, 20 mg/kg",21 µg/mL
same,half-life,"in vivo; im, 20 mg/kg",0.33 h
same,AUC,"in vivo; po, 20 mg/kg, AUC*",18 µg·h/mL
same,Cmax,"in vivo; po, 20 mg/kg",12 µg/mL
same,half-life,"in vivo; po, 20 mg/kg",1.2 h
same,AUC,"in vivo; po, 100 mg/kg, AUC",103 µg·h/mL
same,Cmax,"in vivo; po, 100 mg/kg",56 µg/mL
same,half-life,"in vivo; po, 100 mg/kg",2.3 h
same,MIC,"[1]; read-out: Minimum Inhibitory Concentration Gp Ib, Mueller-Hinton agar, run 1, average of five organisms",3.6 mg/L
same,MIC,"[1]; read-out: Minimum Inhibitory Concentration Gp Ib, Mueller-Hinton agar, run 2, average of five organisms",4.1 mg/L
same,MIC,"S. pyogenes; Streptococcus pyogenes, S. pyogenes A9604, Compound 9 lot 2, read-out: MIC",0.8 mg/L
same,MIC,"S. pyogenes; Streptococcus pyogenes, S. pyogenes A15040, Compound 9 lot 2, read-out: MIC",0.8 mg/L
same,MIC,"S. pyogenes; Streptococcus pyogenes, S. pyogenes A20065, Compound 9 lot 2, read-out: MIC",0.8 mg/L
same,MIC,"S. pyogenes; Streptococcus pyogenes, S. pyogenes A20201, Compound 9 lot 2, read-out: MIC",0.4 mg/L
same,MIC,"S. pyogenes; Streptococcus pyogenes, S. pyogenes Dick, Compound 9 lot 2, read-out: MIC",0.8 mg/L
same,MIC,"S. pyogenes; Streptococcus pyogenes, S. pyogenes S-23, Dick, A9604, A20065, A15040, Compound 9 lot 2, read-out: MIC, Geometric Mean",0.8 mg/L
same,MIC,"S. pyogenes; Streptococcus pyogenes, S. pyogenes S-23, Compound 9 lot 2, read-out: MIC",0.8 mg/L
same,MIC,"[2]; read-out: Minimum Inhibitory Concentration Gp Ia, Mueller-Hinton agar, run 1, average of five organisms",1.2 mg/L
same,MIC,"[2]; read-out: Minimum Inhibitory Concentration Gp Ia, Mueller-Hinton agar, run 2, average of five organisms",1.1 mg/L
same,ED50,S. pyogenes A20201,0.25 mg/kg
same,MIC,"S. pneumoniae; S. pneumoniae A9585, Compound 9 lot 2, read-out: MIC",1.6 mg/L
same,MIC,"S. pneumoniae; S. pneumoniae A15069, Compound 9 lot 2, read-out: MIC",1.6 mg/L
same,MIC,"S. pneumoniae; S. pneumoniae A20759, Compound 9 lot 2, read-out: MIC",3.1 mg/L
same,MIC,"S. pneumoniae; S. pneumoniae Type I, Compound 9 lot 2, read-out: MIC",1.6 mg/L
same,MIC,"S. pneumoniae; S. pneumoniae Type II, I, III, A9585, A15069, Compound 9 lot 2, read-out: MIC, Geometric Mean",1.6 mg/L
same,MIC,"S. pneumoniae; S. pneumoniae Type II, Compound 9 lot 2, read-out: MIC",1.6 mg/L
same,MIC,"S. pneumoniae; S. pneumoniae Type III, Compound 9 lot 2, read-out: MIC",1.6 mg/L
same,MIC,N. meningitidis; [8],6.3 mg/L
same,MIC,N. meningitidis; [9],6.3 mg/L
same,MIC,N. meningitidis; [10],6.3 mg/L
same,MIC,N. meningitidis; Neisseria meningitidis; read-out: MIC,6.3 mg/L
same,MIC,"N. meningitidis; Neisseria meningitidis; read-out: MIC, Geometric Mean",6.3 mg/L
same,MIC,"H. influenzae; H. influenzae A9729, read-out: MIC",6.3 mg/L
same,MIC,"H. influenzae; H. influenzae A9833, read-out: MIC",6.3 mg/L
same,MIC,"H. influenzae; H. influenzae A20177, read-out: MIC",6.3 mg/L
same,MIC,"H. influenzae; H. influenzae A20193, read-out: MIC",6.3 mg/L
same,MIC,"H. influenzae; H. influenzae A21523, read-out: MIC",6.3 mg/L
same,MIC,"H. influenzae; H. influenzae A22157, read-out: MIC",6.3 mg/L
same,MIC,"H. influenzae; H. influenzae A22481, read-out: MIC",6.3 mg/L
same,MIC,"H. influenzae; H. influenzae A22482, read-out: MIC",6.3 mg/L
same,MIC,"H. influenzae; H. influenzae A22483, read-out: MIC",6.3 mg/L
same,MIC,"H. influenzae; H. influenzae A22491, read-out: MIC",6.3 mg/L
same,MIC,"H. influenzae; H. influenzae, seven strains above, read-out: MIC, Geometric Mean",6.3 mg/L
same,T1/2,"[3]; im, 20 mg/kg",0.37 h
same,T1/2,"[3]; po, 20 mg/kg",1.6 h
same,T1/2,"[3]; po, 100 mg/kg",1.5 h
same,Protective Dose PD50,P. mirabilis A9554,14
"C/C=C\C1=C(C(=O)O)N2C(=O)[C@@H](NC(=O)[C@H](N)c3ccc(O)c(OC)c3)[C@H]2SC1 [Compound 42, 7β-[D(-)-2-Amino-2-(4-hydroxy-3-methoxyphenyl)acetamido]-3-[(Z)-1-propen-1-yl]-3-cephem-4-carboxylic Acid]",antibacterial activity,bacteria,high in vitro and in vivo activity
same,difference in MIC between the two media,[4],less than three fold
same,MIC,"[1]; read-out: Minimum Inhibitory Concentration Gp Ib, Mueller-Hinton agar, not part of run 1, tested separately, average of five organisms",1.2 mg/L
same,MIC,"[1]; read-out: Minimum inhibitory Concentration Gp Ib, Test Medium Comparison, A: Mueller-Hinton agar, average values",1.2 mg/L
same,MIC,"[1]; read-out: Minimum inhibitory Concentration Gp Ib, Test Medium Comparison, B: Nutrient agar, average values",0.4 mg/L
same,ED50,S. aureus Smith,0.09 mg/kg
same,MIC,"[2]; read-out: Minimum Inhibitory Concentration Gp Ia, Mueller-Hinton agar, not part of run 1, tested separately, average of five organisms",0.35 mg/L
same,MIC,"[2]; read-out: Minimum inhibitory Concentration Gp Ia, Test Medium Comparison, A: Mueller-Hinton agar, average values",0.35 mg/L
same,MIC,"[2]; read-out: Minimum inhibitory Concentration Gp Ia, Test Medium Comparison, B: Nutrient agar, average values",0.23 mg/L
